Measurements reported in patent US20260365670A1, “EGFR INHIBITORS AND USES THEREOF” (DIZAL (JIANGSU) PHARMACEUTICAL CO., LTD., priority 2022, published 2026).
Like-named read-outs stand apart in the source and are kept apart here.

Assays:
EGFR Exon19Del/T790M = target: T1, EGFR Exon19Del/T790M (Homo sapiens, UniProt P00533, DEL746-750/T790M); experiment: Inhibition of EGFR Exon19Del/T790M biochemical enzymatic activity (HTRF); details: EGFR Del19-T790M, 1 mM ATP, 1 h, room temperature, read-out: IC50 (nM) @Del19-T790M
T1 construct: purchased Carna Bio
Outline: (§1)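 In a buffer with 5 mM MgCl2, 1 mM MnCl2, 1 mM DTT and 0.01% CHAPS, enzyme turnover of 1 μM biotinylated TK substrate at 1 mM ATP is followed by HTRF after 1 h at room temperature. IC50 is obtained by a four-parameter fit.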

EGFR L858R/T790M = target: T2, EGFR L858R/T790M (Homo sapiens, UniProt P00533, L858R/T790M); experiment: Inhibition of EGFR L858R/T790M biochemical enzymatic activity (HTRF); details: EGFR L858R-T790M, 1 mM ATP, 1 h, room temperature, read-out: IC50 (nM) @L858R-T790M
T2 construct: purchased Carna Bio
Outline: as §1

PC-9 = experiment: Cell proliferation assay, PC-9 cells (CellTiter-Glo, 72 hours); format: cell-based; details: PC9 cells, CellTiter-Glo, read-out: PC9 GI50
Outline: (§2)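 Growth over 72 h was quantified by CellTiter-Glo luminescence, normalised as (G3 − G0)/(DMSO G3 − G0), for PC-9 cells seeded at 500/well and EGFR-mutant Ba/F3 cells at 5000/well in RPMI1640. Compound concentration series added after overnight incubation; GI50 obtained from best-fit curves.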

[1] = tested on: Ba/F3 cells expressing EGFR mutations; experiment: Cell proliferation assay, Ba/F3 cells expressing EGFR mutations (CellTiter-Glo, 72 hours); format: cell-based; details: CellTiter-Glo
Outline: as §2

EGFR[T790M/C797S/L858R] = target: T3, EGFR[T790M/C797S/L858R] (Homo sapiens, UniProt P00533, C797S/L858R/T790M); experiment: Inhibition of EGFR[T790M/C797S/L858R] biochemical enzymatic activity (HTRF); details: EGFR T790M-C797S-L858R, 1 mM ATP, 1 h, room temperature, read-out: IC50 (nM) @T790M- C797S - L858R
T3 construct: purchased Carna Bio
Outline: as §1

EGFR Exon19Del = target: T4, EGFR Exon19Del (Homo sapiens, UniProt P00533, DEL746-750); experiment: Inhibition of EGFR Exon19Del biochemical enzymatic activity (HTRF); details: EGFR Del19, 1 mM ATP, 1 h, room temperature, read-out: IC50 @Del19
T4 construct: purchased Carna Bio
Outline: as §1

EGFR (d746-750 C797S) = target: T5, EGFR (d746-750 C797S) (Homo sapiens, UniProt P00533, C797S/DEL746-750); experiment: Inhibition of EGFR (d746-750 C797S) biochemical enzymatic activity (HTRF); details: EGFR Del19-C797S, 1 mM ATP, 1 h, room temperature, read-out: IC50 (nM) @Del19-C797S
T5 construct: purchased signalchem
Outline: as §1

A-431 = experiment: Cell proliferation GI50, A-431 cells (Table 6); format: cell-based
[2] = target: T6, EGFR[T790M/C797S/d746-750] (Homo sapiens, UniProt P00533, C797S/DEL746-750/T790M); experiment: Inhibition of EGFR[T790M/C797S/d746-750] biochemical enzymatic activity (HTRF); details: EGFR T790M-C797S-Del19, 1 mM ATP, 1 h, room temperature, read-out: IC50 (nM) @T790M - C797S - Del19
T6 construct: purchased Carna Bio
Outline: as §1

EGFR wild type = target: T7, EGFR wild type (Homo sapiens, UniProt P00533); experiment: Inhibition of EGFR wild type biochemical enzymatic activity (HTRF); details: EGFR WT, 1 mM ATP, 1 h, room temperature, read-out: IC50 (nM) @WT
T7 construct: purchased Carna Bio
Outline: as §1

EGFR (C797S L858R) = target: T8, EGFR (C797S L858R) (Homo sapiens, UniProt P00533, C797S/L858R); experiment: Inhibition of EGFR (C797S L858R) biochemical enzymatic activity (HTRF); details: EGFR L858-C797S, 1 mM ATP, 1 h, room temperature, read-out: IC50 (nM) @L858-C797S
T8 construct: purchased signalchem
Outline: as §1

EGFR L858R = target: T9, EGFR L858R (Homo sapiens, UniProt P00533, L858R); experiment: Inhibition of EGFR L858R biochemical enzymatic activity (HTRF); details: 1 mM ATP, 1 h, room temperature, read-out: IC50 (nM) @L858R
T9 construct: purchased Carna Bio
Outline: as §1

[3] = BaF3 cells, EGFR DEL19-C797S, read-out: DEL19-C797S/BaF3 GI50
[4] = BaF3 cells, EGFR DEL19-T790-C797S, read-out: DEL19-T790-C797S/BaF3 GI50
[5] = BaF3 cells, EGFR L858R, read-out: L858R/BaF3 GI50
[6] = BaF3 cells, EGFR L858R-C797S, read-out: L858R-C797S/BaF3 GI50
[7] = BaF3 cells, EGFR L858R-T790-C797S, read-out: L858R-T790-C797S/BaF3 GI50
[8] = BaF3 cells, EGFR L858R-T790M, read-out: L858R-T790M/BaF3 GI50
[9] = EGFR DEL19-T790M, read-out: DEL19-T790M GI50
[10] = Mus musculus, BaF3, 72 h, BaF3 cells, EGFR DEL19-C797S, read-out: DEL19-C797S/BaF3 GI50
[11] = Mus musculus, BaF3, 72 h, BaF3 cells, EGFR DEL19-T790-C797S, read-out: DEL19-T790-C797S/BaF3 GI50
[12] = Mus musculus, BaF3, 72 h, BaF3 cells, EGFR L858R, read-out: L858R/BaF3 GI50
[13] = Mus musculus, BaF3, 72 h, BaF3 cells, EGFR L858R-C797S, read-out: L858R-C797S/BaF3 GI50
[14] = Mus musculus, BaF3, 72 h, BaF3 cells, EGFR L858R-T790-C797S, read-out: L858R-T790-C797S/BaF3 GI50
[15] = Mus musculus, BaF3, 72 h, BaF3 cells, EGFR L858R-T790M, read-out: L858R-T790M/BaF3 GI50
[16] = Mus musculus, BaF3, 72 h, EGFR DEL19-T790M, read-out: DEL19-T790M GI50
[17] = Homo sapiens, A-431, A-431 cells

T8 sequence (P00533 25-1210 C797S/L858R): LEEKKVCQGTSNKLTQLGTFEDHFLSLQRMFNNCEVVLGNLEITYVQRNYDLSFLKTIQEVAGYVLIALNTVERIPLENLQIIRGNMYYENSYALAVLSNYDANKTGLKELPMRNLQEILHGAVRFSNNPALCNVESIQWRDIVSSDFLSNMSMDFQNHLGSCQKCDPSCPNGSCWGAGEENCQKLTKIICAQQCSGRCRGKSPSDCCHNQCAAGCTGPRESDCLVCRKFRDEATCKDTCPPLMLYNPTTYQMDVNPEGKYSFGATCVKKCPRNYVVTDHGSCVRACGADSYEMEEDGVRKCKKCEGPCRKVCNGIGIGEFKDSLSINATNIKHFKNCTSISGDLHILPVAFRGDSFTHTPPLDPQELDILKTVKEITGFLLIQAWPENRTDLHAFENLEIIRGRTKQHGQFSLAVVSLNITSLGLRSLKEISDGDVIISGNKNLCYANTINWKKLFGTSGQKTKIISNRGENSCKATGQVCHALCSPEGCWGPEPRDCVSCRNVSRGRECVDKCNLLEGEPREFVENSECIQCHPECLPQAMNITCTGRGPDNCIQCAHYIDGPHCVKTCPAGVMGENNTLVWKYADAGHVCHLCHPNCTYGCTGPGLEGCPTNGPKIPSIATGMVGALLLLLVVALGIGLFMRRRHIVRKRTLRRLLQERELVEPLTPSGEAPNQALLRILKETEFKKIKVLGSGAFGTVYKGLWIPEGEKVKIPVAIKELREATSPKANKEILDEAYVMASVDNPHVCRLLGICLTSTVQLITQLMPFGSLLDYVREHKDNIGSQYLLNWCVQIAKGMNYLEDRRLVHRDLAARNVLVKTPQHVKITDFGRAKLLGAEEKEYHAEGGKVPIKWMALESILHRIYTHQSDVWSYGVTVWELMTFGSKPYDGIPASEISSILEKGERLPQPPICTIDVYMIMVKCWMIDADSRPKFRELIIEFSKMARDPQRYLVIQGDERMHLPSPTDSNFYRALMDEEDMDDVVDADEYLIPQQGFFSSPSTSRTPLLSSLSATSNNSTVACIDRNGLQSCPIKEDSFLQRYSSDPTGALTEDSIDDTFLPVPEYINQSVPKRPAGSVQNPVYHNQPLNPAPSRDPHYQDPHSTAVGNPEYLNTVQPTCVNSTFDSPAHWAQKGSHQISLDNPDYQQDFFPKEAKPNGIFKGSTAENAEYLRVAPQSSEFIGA
T3 sequence (P00533 25-1210 T790M/C797S/L858R): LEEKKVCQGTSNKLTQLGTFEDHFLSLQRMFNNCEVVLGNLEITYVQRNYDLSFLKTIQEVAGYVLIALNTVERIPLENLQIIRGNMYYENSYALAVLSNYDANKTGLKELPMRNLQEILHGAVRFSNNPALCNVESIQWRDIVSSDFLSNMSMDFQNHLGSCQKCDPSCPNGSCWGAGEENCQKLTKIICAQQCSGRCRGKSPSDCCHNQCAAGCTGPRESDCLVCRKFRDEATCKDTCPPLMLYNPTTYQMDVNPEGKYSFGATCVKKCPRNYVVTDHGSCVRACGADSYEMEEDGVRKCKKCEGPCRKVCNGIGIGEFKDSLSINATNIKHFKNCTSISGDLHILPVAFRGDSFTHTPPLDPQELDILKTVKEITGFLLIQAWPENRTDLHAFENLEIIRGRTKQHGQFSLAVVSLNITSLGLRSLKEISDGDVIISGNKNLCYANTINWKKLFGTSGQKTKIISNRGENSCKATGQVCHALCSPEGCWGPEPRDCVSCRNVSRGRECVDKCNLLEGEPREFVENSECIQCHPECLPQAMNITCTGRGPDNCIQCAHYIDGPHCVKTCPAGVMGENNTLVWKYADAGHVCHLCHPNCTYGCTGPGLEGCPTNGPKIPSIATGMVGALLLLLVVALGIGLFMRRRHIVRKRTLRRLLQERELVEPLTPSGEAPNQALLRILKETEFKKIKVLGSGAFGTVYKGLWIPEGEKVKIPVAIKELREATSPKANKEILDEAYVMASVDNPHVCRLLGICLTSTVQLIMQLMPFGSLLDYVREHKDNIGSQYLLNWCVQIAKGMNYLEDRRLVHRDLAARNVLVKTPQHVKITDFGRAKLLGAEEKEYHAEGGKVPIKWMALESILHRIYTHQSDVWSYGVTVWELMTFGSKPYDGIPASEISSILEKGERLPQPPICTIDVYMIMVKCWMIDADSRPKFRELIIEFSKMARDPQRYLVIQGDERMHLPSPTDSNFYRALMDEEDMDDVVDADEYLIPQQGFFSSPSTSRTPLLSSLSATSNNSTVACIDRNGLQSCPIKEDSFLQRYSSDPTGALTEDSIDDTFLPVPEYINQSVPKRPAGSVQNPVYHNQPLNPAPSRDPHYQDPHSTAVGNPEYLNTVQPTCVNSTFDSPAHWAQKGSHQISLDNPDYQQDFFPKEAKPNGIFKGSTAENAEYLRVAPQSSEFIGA
T9 sequence (P00533 25-1210 L858R): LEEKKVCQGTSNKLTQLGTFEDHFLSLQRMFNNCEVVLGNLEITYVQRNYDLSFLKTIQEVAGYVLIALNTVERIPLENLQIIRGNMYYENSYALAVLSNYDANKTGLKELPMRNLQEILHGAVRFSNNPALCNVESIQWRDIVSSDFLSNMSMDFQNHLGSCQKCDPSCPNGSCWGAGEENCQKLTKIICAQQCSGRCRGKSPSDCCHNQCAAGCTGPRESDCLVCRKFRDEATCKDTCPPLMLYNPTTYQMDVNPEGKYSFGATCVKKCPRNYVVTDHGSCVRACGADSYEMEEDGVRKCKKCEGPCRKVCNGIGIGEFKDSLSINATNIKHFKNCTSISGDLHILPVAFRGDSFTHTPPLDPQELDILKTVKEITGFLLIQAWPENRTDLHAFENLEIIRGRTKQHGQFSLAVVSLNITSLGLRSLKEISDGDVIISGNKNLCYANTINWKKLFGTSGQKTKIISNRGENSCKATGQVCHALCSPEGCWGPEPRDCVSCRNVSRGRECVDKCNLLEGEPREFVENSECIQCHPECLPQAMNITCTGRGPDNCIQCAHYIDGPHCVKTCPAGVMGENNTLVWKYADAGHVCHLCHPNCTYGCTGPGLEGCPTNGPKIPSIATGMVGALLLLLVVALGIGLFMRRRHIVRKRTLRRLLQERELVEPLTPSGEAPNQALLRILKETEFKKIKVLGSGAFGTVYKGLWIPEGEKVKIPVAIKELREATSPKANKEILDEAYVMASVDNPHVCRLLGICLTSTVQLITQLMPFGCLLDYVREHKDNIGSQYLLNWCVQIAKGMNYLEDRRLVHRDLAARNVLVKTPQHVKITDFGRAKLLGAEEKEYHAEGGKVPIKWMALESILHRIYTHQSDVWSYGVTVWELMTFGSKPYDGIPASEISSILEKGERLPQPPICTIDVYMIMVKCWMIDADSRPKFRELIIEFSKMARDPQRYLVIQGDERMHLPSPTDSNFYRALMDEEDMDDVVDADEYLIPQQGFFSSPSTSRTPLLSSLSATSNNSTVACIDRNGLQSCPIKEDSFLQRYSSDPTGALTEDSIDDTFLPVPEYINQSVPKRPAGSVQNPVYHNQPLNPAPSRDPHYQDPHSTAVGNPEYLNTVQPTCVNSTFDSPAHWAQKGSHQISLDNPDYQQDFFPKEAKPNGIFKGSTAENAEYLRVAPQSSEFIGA
T6 sequence (P00533 with tags, fused parts or gaps DEL746-750/T790M/C797S limits assumed): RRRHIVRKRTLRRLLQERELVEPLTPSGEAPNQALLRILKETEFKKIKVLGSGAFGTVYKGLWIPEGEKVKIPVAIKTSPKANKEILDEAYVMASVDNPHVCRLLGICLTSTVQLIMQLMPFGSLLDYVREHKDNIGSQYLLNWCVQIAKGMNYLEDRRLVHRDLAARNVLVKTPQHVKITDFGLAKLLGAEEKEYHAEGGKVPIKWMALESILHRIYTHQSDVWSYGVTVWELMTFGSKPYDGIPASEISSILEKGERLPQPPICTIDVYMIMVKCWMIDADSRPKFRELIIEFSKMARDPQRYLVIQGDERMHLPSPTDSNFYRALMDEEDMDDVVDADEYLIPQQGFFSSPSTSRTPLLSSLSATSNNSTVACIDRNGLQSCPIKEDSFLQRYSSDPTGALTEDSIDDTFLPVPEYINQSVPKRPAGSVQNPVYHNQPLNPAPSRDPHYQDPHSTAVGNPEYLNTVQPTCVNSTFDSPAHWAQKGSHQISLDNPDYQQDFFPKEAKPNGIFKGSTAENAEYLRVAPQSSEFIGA
T4 sequence (P00533 with tags, fused parts or gaps DEL746-750 limits assumed): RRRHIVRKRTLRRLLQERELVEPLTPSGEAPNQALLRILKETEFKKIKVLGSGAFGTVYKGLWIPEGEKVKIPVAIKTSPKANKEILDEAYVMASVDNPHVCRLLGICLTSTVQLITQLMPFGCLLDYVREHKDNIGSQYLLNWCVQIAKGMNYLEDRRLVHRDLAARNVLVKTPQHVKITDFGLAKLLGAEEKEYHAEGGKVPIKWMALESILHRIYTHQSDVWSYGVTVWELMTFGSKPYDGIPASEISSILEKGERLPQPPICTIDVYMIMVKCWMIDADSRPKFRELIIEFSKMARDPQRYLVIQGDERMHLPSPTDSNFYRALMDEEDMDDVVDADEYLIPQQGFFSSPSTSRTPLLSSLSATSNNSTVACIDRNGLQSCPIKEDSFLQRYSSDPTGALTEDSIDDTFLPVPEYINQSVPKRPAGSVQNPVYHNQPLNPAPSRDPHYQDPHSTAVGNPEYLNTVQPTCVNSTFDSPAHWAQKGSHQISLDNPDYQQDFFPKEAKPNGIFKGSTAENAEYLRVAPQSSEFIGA

SMILES | IC50 (EGFR Exon19Del/T790M) [nM] | IC50 (EGFR L858R/T790M) [nM] | GI50 [1, 3] [nM] | GI50 [1, 4] [nM] | IC50 (EGFR[T790M/C797S/L858R]) [nM] | IC50 (EGFR Exon19Del) [nM] | IC50 (EGFR (d746-750 C797S)) [nM] | IC50 [2] [nM] | IC50 (EGFR wild type) [nM] | IC50 (EGFR (C797S L858R)) [nM] | IC50 (EGFR L858R) [nM] | GI50 (PC-9; Homo sapiens, PC-9, 72 h) [nM] | GI50 [1, 10] [nM] | GI50 [1, 11] [nM] | GI50 [1, 12] [nM] | GI50 [1, 13] [nM] | GI50 [1, 14] [nM] | GI50 [1, 15] [nM] | GI50 [1, 16] [nM] | GI50 (A-431; [17]) [nM] | also measured
Cn1ncc2c1OCCN1CCCC(C)(C1)n1c(nc3ccc(N4CCOCC4)cc31)NC(=O)c1cc-2c(=O)n(C)c1 (stereo not drawn) [Example A10, 1,15,21-trimethyl-5-(morpholin-4-yl)-23-oxa-2,9,11,15,20,21,26-heptaazahexacyclo[24.3.1.1^{13,17}.0^{2,10}.0^{3,8}.0^{18,22}]hentriaconta-3,5,7,9,13,17(31),18(22),19-octaene-12,16-dione] | 164 | 2630 |  |  | 4400 | 189 | 173 | 166 | > 5000 | 1950 | 2150 | 128 | 33 | 368 | 309 | 291 | 260 | 219 | 323 | 5140 | 
C[C@@H]1CCCOc2c(cnn2C)-c2cc(cn(C)c2=O)C(=O)Nc2nc3ccc(N4CCC(N5CCN(C)CC5)CC4)cc3n2C1 [Example A29] | 7.6 | 15 |  |  | 8.9 | 3.8 | 2.1 | 8.2 | 109 | 7.9 | 14 | 7.1 | 0.41 | 1 | 2.1 | 2.8 | 0.78 | 2.5 | 1.9 | 247 | 
CCC1CCCOc2c(cnn2C)-c2cc(cn(C)c2=O)C(=O)Nc2nc3ccc(N4CCN(C)CC4)cc3n2C1 (single isomer, unassigned) [Example A16A, 11-Ethyl-5,26-dimethyl-16-(4-methylpiperazin-1-yl)-7-oxa-4,5,13,20,22,26-hexaazapentacyclo[22.3.1.0^{2,6}.0^{13,21}.0^{14,19}]octacosa-1(28),2(6),3,14,16,18,20,24-octaene-23,27-dione] | 127 | > 5000 | 73 | 122 | > 5000 | 150 | 152 | 115 | > 5000 | 1350 | > 5000 | 139 |  |  |  |  |  |  |  |  | GI50 [1, 5]: 182 nM; GI50 [1, 6]: 113 nM; GI50 [1, 7]: 161 nM; GI50 [1, 8]: 165 nM; GI50 [1, 9]: 117 nM; GI50 (A-431; A-431 cells): 95 nM

Further lines, with some results ahead:

IC50 (EGFR Exon19Del/T790M) [nM] | IC50 (EGFR L858R/T790M) [nM] | GI50 [1, 3] [nM] | GI50 [1, 4] [nM] | IC50 (EGFR[T790M/C797S/L858R]) [nM] | IC50 (EGFR Exon19Del) [nM] | IC50 (EGFR (d746-750 C797S)) [nM] | IC50 [2] [nM] | IC50 (EGFR wild type) [nM] | IC50 (EGFR (C797S L858R)) [nM] | IC50 (EGFR L858R) [nM] | GI50 (PC-9; Homo sapiens, PC-9, 72 h) [nM] | GI50 [1, 10] [nM] | GI50 [1, 11] [nM] | GI50 [1, 12] [nM] | GI50 [1, 13] [nM] | GI50 [1, 14] [nM] | GI50 [1, 15] [nM] | GI50 [1, 16] [nM] | GI50 (A-431; [17]) [nM] | SMILES | also measured
4500 | > 5000 | 66 | 160 | > 5000 | 267 | 245 | 2860 | > 5000 | 1040 | 770 |  |  |  |  |  |  |  |  |  | CCN1CCN(c2ccc3nc4n(c3c2)C23CCC(CN(CCOc5c(cnn5C)-c5cc(cn(C)c5=O)C(=O)N4)C2)C3)CC1 (single isomer, unassigned) [Example A107A] | GI50 (PC-9): 238 nM; GI50 [1, 5]: 240 nM; GI50 [1, 6]: 105 nM; GI50 [1, 7]: 235 nM; GI50 [1, 8]: 332 nM; GI50 [1, 9]: 183 nM; GI50 (A-431; A-431 cells): 2420 nM
> 5000 | > 5000 | 102 | 269 | > 5000 | 508 | 494 | 3750 | > 5000 | > 5000 | 2040 |  |  |  |  |  |  |  |  |  | CN1CCC2(C1)CN(c1ccc3nc4n(c3c1)C13CCC(CN(CCOc5c(cnn5C)-c5cc(cn(C)c5=O)C(=O)N4)C1)C3)C2 (single isomer, unassigned) [Example A78A] | GI50 (PC-9): 249 nM; GI50 [1, 5]: 329 nM; GI50 [1, 6]: 157 nM; GI50 [1, 7]: 402 nM; GI50 [1, 8]: 380 nM; GI50 [1, 9]: 250 nM; GI50 (A-431; A-431 cells): 3050 nM
3.7 | 13 |  |  | 7.1 | 4.5 | 2.2 | 4.4 | 295 | 8.9 | 21 | 5.7 | 1 | 3.6 | 2.6 | 3.4 | 2.5 | 9.5 | 5.2 | 508 | C[C@@H]1CCCOc2c(cnn2C)-c2cc(cn(C)c2=O)C(=O)Nc2nc3ccc(N4CCC5(CN(C)C5)C4)cc3n2C1 [Example A43] | 
4.5 | 6.1 |  |  | 5.2 | 4.4 | 2.3 | 4.3 | 71 | 6.7 | 11 | 17 | 1.7 | 4.2 | 4 | 5.4 | 4.7 | 17 | 7.7 | 642 | C[C@@H]1CCCOc2c(cnn2C)-c2cc(cn(C)c2=O)C(=O)Nc2nc3ccc(N4CC5(CN(C)C5)C4)cc3n2C1 [Example A40] | 
11 | 2610 |  |  | 807 | 202 | 140 | 11 | > 5000 | 4720 | > 5000 | 295 | 32 | 75 | 201 | 222 | 160 | 964 | 140 | 1140 | Cn1ncc2c1OCCN1CC3CCC(C3)(C1)n1c(nc3cc(Br)ccc31)NC(=O)c1cc-2c(=O)n(C)c1 (stereo not drawn) [Example A59, 6-Bromo-15,21-dimethyl-23-oxa-2,9,11,15,20,21,26-heptaazaheptacyclo[24.4.1.1^{1,28}.1^{13,17}.0^{2,10}.0^{3,8}.0^{18,22}]tritriaconta-3,5,7,9,13,17(33),18(22),19-octaene-12,16-dione] | 
